# Test results as given in US6379959B1, “Metalocarboxypeptidase inhibitors and derived molecules used as antitumor agents” (Universitat Autonoma de Barcelona, priority 1996, dated 2002).
# Like-named read-outs stand apart in the source and are kept apart here.
# Columns and labels:
# [1] = tested on: human pancreatic adenocarcinoma cell line Capan-1; assay: Apoptosis by DAPI labeling and fluorescence microscope; format: cell-based; settings: positive control, 10 μg/mL, 24 h
# Method: The studies of possible induction of apoptosis by the PCI were done with the human pancreatic adenocarcinoma cell line Capan-1. The detailed procedure that was employed is as follows:
# 1. 5×10^5 cells were seed in the chambers/slides and were cultured for 3 o 4 days (until the moment in which, through microscope observation, they presented 75% of confluence). The cells were cultured in DMEM+10% FBS.
# 2. […] A positive control was added, cysplatinum, at a concentration of 10 μg/mL (a drug which induces apoptosis in various tumor cell lines, Borner, M. M., et al. (1995) Cancer Res., 55: 2122-2128. The incubation period was 24 h.
# 3. The medium was removed after incubation and the chamber was washed with 2 mL of PBS.
# 5. Cells were fixed with 2 mL of 2% formaldehyde for 20 min at 4° C.
# 6. The plates were washed again with 2 mL of PBS for 5 min at room temperature.
# 7. Cell membranes were permeabilized with 0.25% Triton ×100 in PBS for 5 min at 4° C.
# 8. Washed with PBS for 5 min at room temperature.
# 9. The cells were labeled with DAPI at a final concentration of 2 μg/mL for 50 min in darkness at room temperature.
# 10. The preparation was fitted with the fluoroprep medium and it was examined through the fluorescence microscope.
# % apoptosis=(number of apoptotic cells/total number of cells)×100
# [2] = tested on: human pancreatic adenocarcinoma cell line Panc-1; format: cell-based; settings: SFM, 72 h
# Method: The tests that were carried out growing in free bovine fetal serum medium were very similar to those used in the line Capan-1 described in Section 4.B.2.b. The protocol employed is as follows:
# 1. A culture plate with 96 wells, in 42 of which 5,000 cells were seed per well. The cells were placed in full medium (RPMI+10%FBS).
# 2. After 48 h, after the cells had adhered to the surface of the well and they had divided as well, the medium was drained from the wells and to eliminate the rest of the serum, 200 μL of PBS were added to each well.
# 3. The PBS was removed and 200 μL of RPMI-FBS were added.
# 4. After 48 h, the medium was removed and the following treatments were applied:
# (§1) In 6 wells (control): 200 μL of serum-free medium (SFM) were added.
# In 6 wells, 200 μL of SFM plus the indicated concentration of one of the growth factors and wtPCI at a final concentration of 50 μg/mL were added.
# In 6 wells, 200 μL of SFM plus the indicated concentration of one of the growth factors and PCIdelYVG at a final concentration of 46 μg/mL were added.
# In 6 wells, 200 μL of SFM plus the indicated concentration of one of the growth factors and tail at a final concentration of 6.4 μg/mL were added.
# In 6 wells, 200 μL of SFM plus the indicated concentration of one of the growth factors and wtPCI at a final concentration of 50 μg/mL combined with tail at a final concentration of 6.4 μg/mL were added.
# In 6 wells, 200 μL of SFM plus the indicated concentration of one of the growth factors and PCIdelYVG at a final concentration of 46 μg/mL combined with tail at a final concentration of 6.4 μg/mL were added.
# The cells were kept in an incubator at 37° C., 87% of relative humidity and 10% of CO2.
# 5. After 72 h, the cell growth per well was evaluated using the method detailed in the protocol of Section 4.B.2.a.
# [3] = tested on: human pancreatic adenocarcinoma cell line Capan-1; format: cell-based; settings: SFM, 72 h
# Method: Other kinds of tests were also carried out, the cells growing in serum-free medium as well; these were studies at short periods of time, 72 h, and of competitiveness with a growth factor plus wtPCI, PCIdelYVG or tail. […] The protocol employed was as follows:
# 1. In a culture plate of 96 wells, in 42 of which 5,000 cells per well were seed. The cells were placed in full medium (DMEM+10%FBS).
# 2. After 72 h, once the adhesion of the cells to the surface of the well had taken place, as well as their division, the medium was removed from the wells and to eliminate the remainder of the serum, 200 μL of PBS were added to each well.
# 3. The PBS was removed and 200 μL of DMEM-FBS were added.
# 4. After 24 h, the medium was removed and the following treatments were applied:
# as §1
# 200 μL of SFM plus the indicated concentration of one of the growth factors and wtPCI were added in 6 wells at a final concentration of 50 μg/mL.
# In 6 wells, 200 μL of SFM plus the indicated concentration of one of the growth factors and PCIdelYVG were added at a final concentration of 46 μg/mL. […]
# 4. Cells were kept in an incubator at 37° C., 87% of relative humidity and 10% of CO2.
# 5. After 72 h, the cellular growth per well was evaluated using the method detailed in the protocol of Section 4.B.2.a.
# [4] = tested on: human pancreatic adenocarcinoma cell line Capan-1; settings: serum-free medium, 16 days
# Method: Two kinds of tests were carried out; the first one is the treatment of cells of the human pancreatic adenocarcinoma cell line Capan-1 with wtPCI and tail added to the culture medium in absence of serum.
# In a culture plate with 96 wells, 5,000 cells were seed per well, in 24 of them. The cells were placed in full medium (DMEM+10%FBS).
# In 6 wells (control): 200 μL of serum-free medium (DMEM-FBS) and free of tail were added.
# 200 μL of serum-free medium with 50 μg/mL of native PCI were added.
# In 6 wells, 200 μL of serum-free medium with 0.128 μg of tail/mL were added.
# In 6 wells, serum-free medium with 6.4 μg of tail/mL was added.
# The medium contained in the wells was changed every 3-4 days. The old medium was sucked out using a Pasteur pipette.
# After 16 days, the cell growth per well was evaluated according to the method detailed in the protocol of Section 4.B.2.a.
# [5] = tested on: human pancreatic adenocarcinoma cell line Panc-1; format: cell-based; settings: SFM, 72 h; remark: listed apart in the source
# carboxypeptidase = target: T1, carboxypeptidase (Bos taurus, UniProt P00730); assay: Carboxypeptidase inhibiting effect; format: biochemical
# T1 sequence (P00730 111-419): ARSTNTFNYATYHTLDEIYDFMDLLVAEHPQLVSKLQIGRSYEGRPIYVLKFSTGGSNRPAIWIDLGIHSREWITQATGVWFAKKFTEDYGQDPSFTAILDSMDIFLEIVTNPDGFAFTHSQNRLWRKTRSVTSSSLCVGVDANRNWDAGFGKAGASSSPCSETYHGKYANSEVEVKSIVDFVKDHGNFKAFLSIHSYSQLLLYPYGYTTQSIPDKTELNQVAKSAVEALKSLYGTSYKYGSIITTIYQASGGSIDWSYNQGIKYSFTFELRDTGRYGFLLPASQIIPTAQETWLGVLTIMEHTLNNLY
# Method: All the buffers employed in HPLC and FPLC are prepared employing Mono-Q water and are filtered through membranes of 0.22 μm and degassed immediately before use. The HPLC, as well as the FPLC, are done at room temperature. The process of purification is done by determining the global concentration of proteins after each step using the Bradford method; the concentration of recombinant PCI is evaluated by measuring its inhibitory effect of CPA using appropriate blanks; or, in the case of PCI mutants with little or zero carboxypeptidase activity, by ELISA with rabbit polyclonal antibodies against PCI.
# To determine whether the inhibiting effect on cellular growth of the PCI is related to its carboxypeptidase inhibiting effect or with its specific knotin topology, tests of cellular inhibition with a mutant form were carried out. Concretely, the deletion of the three C-terminal amino acids was designed resulting in the form PCIdelY37V38G39 (or PCIdelYVG). This form was designed and constructed because it keeps the structure and the topology of wild PCI. This is inferred from the fact that it presents a similar chromatographic behaviour to that of the wild form and that it can be detected by antibodies antiwtPCI. Also by means of computer simulation (by molecular dynamics using the GROMOS programme) it presented a similar behaviour to the wild form after 300 ps of dynamics.
# [6] = tested on: human pancreatic adenocarcinoma cell line Panc-1; assay: Proliferation test with tetrazolium salts, Panc-1 in medium with serum, 10 days; format: cell-based
# Method: It was performed the same kind of test which had been carried out for the Capan-1 cell line but with Panc-1, another human pancreatic adenocarcinoma cell line. We are referring to a human pancreatic adenocarcinoma ATCC nr. CRL 1469, established by Lieber, M. et al. (1975) In. J. Cancer, 15: 741-747. Of ductal origin, it is not highly differentiated.
# As for the Capan-1 cell line, two types of experiments were carried out with and without bovine fetal serum. The protocol followed for the test, growing in RPMI plus bovine fetal serum, was the same as that used with Capan-1 cell line but with small variations, given the difference in the duplication times between the two lines. The tests were carried out with the native PCI (wtPCI) and with the mutant PCI (PCIdelYVG). The protocol is detailed as follows:
# 1. In a culture plate with 96 wells, 2,000 cells were seed in 30 wells for the tests with wtPCI and in 36 for the tests with PCIdelYVG. From these 30 or 36:
# In 6 wells (control), 200 μL of full medium (RPMI+10%FBS) without wtPCI or PCIdelYVG/mL were added. […]
# 2. The cells were kept in an incubator at 37° C., 87% of relative humidity and 10% of CO2. The old medium was sucked out with a Pasteur pipette. Medium free of wtPCI or PCIdelYVG was added to the control wells and to the others a medium was added with identical concentration of wtPCI or PCIdelYVG.
# 3. After 10 days, the cell growth was evaluated per well, according to the method detailed in the protocol of Section 4.B.2.a.
# Panc-1 cells = assay: Internalization studies by means of fluorescence (RITC labeling), Panc-1; format: cell-based, human; settings: accumulation around the nucleus
# Method: In fluorescence studies, the possible internalization of PCI, labeled with a fluorophore, by Capan-1 and Panc-1 cell lines was followed by microscope observation.
# In the incorporation studies of the RITC-PCI, the protocol of Billings, P. C. et al. (1989) Carcinogenesis, 10: 687-691, slightly modified, was followed:
# 1. 200,000 cells of the cell line to be studied were placed in culture chambers/slides and were left there to grow for 48 h.
# 2. The medium of the cells growing in exponential phase was changed and 20 or 50 μg/mL of RITC-PCI were added to the new medium, keeping it in the medium for a variable incubation time ranging from 1 minute to 4 h inside the incubator.
# 3. The medium was retired after the incubation and the monolayer of the cells was washed with PBS for 10 min in darkness.
# 4. The cells were fixed with 350 μl of a solution 50% methanol—50% acetone for 8 min at 4° C. in a dark and humid chamber.
# 5. The cells were washed again with PBS for 10 min in darkness.
# 6. The preparations were dried with absorbing paper being very careful not to touch the cells. The preparations were fitted with PBS: Glycerol (1:1) and were sealed with nail polish.
# The labeling protocol was exactly the same as that of the wild PCI, as described in Section 4.F.1.b. The studies of incorporation of the labeled mutant were carried out as described in Section 4.F.1.c.
# [7] = Insulina 5 mg/mL + 6.4 mg/mL tail
# [8] = EGF 10 ng/mL + 46 mg/mL PCIdelYVG
# [9] = Insulin 5 mg/mL + 46 mg/mL PCIdelYVG
compound,measurement,setting,value
"N.N.[Cl][Pt][Cl] [cysplatinum, reference compound]",% Apoptosis,[1],5.19%
EGF: epidermic growth factor [reference compound],Growth (Percentage in relation to the average of the controls),[2]; EGF 10 ng/mL alone,63.52%
same,inhibition in relation to the control situation,"[2]; EGF alone, in the tested concentration (10 ng/mL)",36%
same,Growth (Percentage in relation to the average of the controls),[3]; EGF 10 ng/mL alone,106.66%
same,growth in relation to the control situation,"[3]; EGF alone, at the tested concentration (10 ng/mL)",no differences in relation to the control situation
"H-GPYVG-OH [tail, H-Gly-Pro-Tyr-Val-Gly-OH]",Growth (Percentage in relation to the average of the controls),[4]; 0.128 mg/mL tail,81.95%
same,Growth (Percentage in relation to the average of the controls),[4]; 6.4 mg/mL tail,77%
same,Growth (Percentage in relation to the average of the controls),[5]; EGF 10 ng/mL + 6.4 mg/mL tail,16.23%
same,Growth (Percentage in relation to the average of the controls),[5]; [7],24.84%
same,carboxypeptidase inhibitory activity,carboxypeptidase,lacks carboxypeptidase inhibitory activity
same,Growth (Percentage in relation to the average of the controls),[3]; EGF 10 ng/mL + 6.4 mg/mL tail,28.33%
same,Growth (Percentage in relation to the average of the controls),[3]; [7],52.58%
IGF-1: growth factor 1 of the insulin type [reference compound],stimulation in relation to control,[2]; IGF-1 alone (20 ng/mL),26%
same,stimulation in relation to the control,[3]; IGF-1 alone (20 ng/mL),58%
Insulin: growth factor used to stimulate proliferation [reference compound],Growth (Percentage in relation to the average of the controls),[2]; Insulin 5 mg/mL alone,193.47%
same,stimulation in relation to control,[2]; insulin alone (5 μg/mL),93%
same,Growth (Percentage in relation to the average of the controls),[3]; Insulin 5 mg/mL alone,292.86%
same,stimulation in relation to the control,[3]; insulin alone (5 μg/mL),193%
PCIdelYVG: recombinant PCI mutant with deletion of the three C-terminal amino acids Tyr-Val-Gly (EQHADPICNKPCKTHDDCSGAWFCQACWNSARTCGP; Potato; (1)..(39) Isoform IIa of the potato carboxypeptidase inhibitor),inhibition of the growth,[6]; 46 μg/mL concentration,15%
same,Growth (Percentage in relation to the average of the controls),"[6]; 0.092 mg/mL PCIdelYVG, RPMI+10%FBS",112.92%
same,Growth (Percentage in relation to the average of the controls),[6]; 0.92 mg/mL PCIdelYVG,105.43%
same,Growth (Percentage in relation to the average of the controls),[6]; 23 mg/mL PCIdelYVG,94.85%
same,Growth (Percentage in relation to the average of the controls),[6]; 46 mg/mL PCIdelYVG,85.51%
same,stimulus of the growth,[6]; concentration 0.092 μg/mL,13%
same,Growth (Percentage in relation to the average of the controls),[5]; [8],5.53%
same,Growth (Percentage in relation to the average of the controls),[5]; [9],21.41%
same,Ki,carboxypeptidase,micromolar level
same,decrease of the inhibitory capacity,carboxypeptidase; compared with wild PCI,3 orders of magnitude
same,incorporation of RITC-labeled mutant by the cells,Panc-1 cells,is incorporated by the cells
same,Growth (Percentage in relation to the average of the controls),[3]; [8],40.83%
same,Growth (Percentage in relation to the average of the controls),[3]; [9],44.60%
